Assay: Solubility of dye in alcohol systems
Format: physicochemical
Description: It was observed that, Ponceau 4R Dye precipitated on the second day. The others (Brilliant Blue, D&C Green, Carmoisine) were stable over 30 days at room temperature with no precipitation observed. PVPK 120 postpones the precipitation of anionic dyes with CHG to various degrees. It was observed that the azo dye structure with 3 sulphonate groups precipitated out of solution quicker.

Solubility in alcohol systems: good solubility
SMILES: O=C1OC2(c3ccccc31)c1cc(I)c(O)c(I)c1Oc1c2cc(I)c(O)c1I [Erythrosine]
